Structures can show the parent of a compound that is named as a salt.
Assays:
[1] = target: T1, EZH2 within the PRC2 complex (Homo sapiens (Human), UniProt Q15910); assay: EZH2 methyltransferase SPA, biotinylated histone H3K27 peptide substrate (Assay Protocol 2); format: biochemical; settings: 3H-SAM, ≦10 nM approaches limit of detection
Procedure, shortened: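 Scintillation proximity read-out of 3H-methyl transfer onto biotinylated unmethylated H3K27 peptide (10 uM) captured on streptavidin beads; SAM 0.15 uM tritiated plus 2.85 uM cold.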

[2] = target: T1, EZH2 within the PRC2 complex; assay: EZH2 methyltransferase SPA, mononucleosome substrate (Assay Protocol 1); format: biochemical; settings: HeLa mononucleosome substrate, 3H-SAM, ≦10 nM approaches limit of detection
Procedure: Compounds contained herein were evaluated for their ability to inhibit the methyltransferase activity of EZH2 within the PRC2 complex. Human PRC2 complex was prepared by co-expressing each of the 5 member proteins (FLAG-EZH2, EED, SUZ12, RbAp48, AEBP2) in Sf9 cells followed by co-purification. Enzyme activity was measured in a scintillation proximity assay (SPA) where a tritiated methyl group is transferred from 3H-SAM to a lysine residue on Histone H3 of a mononucleosome, purified from HeLa cells. Mononucleosomes were captured on SPA beads and the resulting signal is read on a ViewLux plate reader.
Part A. Compound Preparation
• 1. Prepare 10 mM stock of compounds from solid in 100% DMSO. • 2. Set up an 11-point serial dilution (1:3 dilution, top concentration 10 mM) in 100% DMSO for each test compound in a 384 well plate leaving columns 6 and 18 for DMSO controls. • 3. Dispense 100 nL of compound from the dilution plate into reaction plates (Grenier Bio-One, 384-well, Cat#784075). Part B. Reagent Preparation Prepare the following solutions: • 1. 50 mM Tris-HCl, pH 8: Per 1 L of base buffer, combine 1 M Tris-HCl, pH 8 (50 mL) and distilled water (950 mL). • 2. 1× Assay Buffer: Per 10 mL of 1× Assay Buffer, combine 50 mM Tris-HCl, pH 8 (9958 uL), 1 M MgCl2 (20 uL), 2 M DTT (20 uL), and 10% Tween-20 (2 uL) to provide a final concentration of 50 mM Tris-HCl, pH 8, 2 mM MgCl2, 4 mM DTT, 0.002% Tween-20. • 3. 2× Enzyme Solution: Per 10 mL of 2× Enzyme Solution, combine 1× Assay Buffer and PRC2 complex to provide a final enzyme concentration of 10 nM. • 4. SPA Bead Suspension: Per 1 mL of SPA Bead Suspension, combine PS-PEI coated LEADSeeker beads (40 mg) and H2O (1 mL) to provide a final concentration of 40 mg/mL. • 5. 2× Substrate Solution: Per 10 mL of 2× Substrate Solution, combine 1× Assay Buffer (9728.55 uL), 800 ug/mL mononucleosomes (125 uL), 1 mM cold SAM (4 uL), and 7.02 uM 3H-SAM (142.45 uL; 0.55 mCi/mL) to provide a final concentration of 5 ug/mL nucleosomes, 0.2 uM cold SAM, and 0.05 uM 3H-SAM. • 6. 2.67× Quench/Bead Mixture: Per 10 mL of 2.67× Quench/Bead Mixture, combine ddH2O (9358 uL), 10 mM cold SAM (267 uL), 40 mg/mL Bead Suspension (375 uL) to provide a final concentration of 100 uM cold SAM and 0.5 mg/mL SPA beads. Part C. Assay Reaction in 384-well Grenier Bio-One Plates Compound Addition • 1. Dispense 100 nL/well of 100× Compound to test wells (as noted above). • 2. Dispense 100 nL/well of 100% DMSO to columns 6 & 18 for high and low controls, respectively. Assay • 1. Dispense 5 uL/well of 1× Assay Buffer to column 18 (low control reactions). • 2. Dispense 5 uL/well of 2× Enzyme Solution to columns 1-17, 19-24. • 3. Spin assay plates for ˜1 min at 500 rpm. • 4. Stack the assay plates, covering the top plate. • 5. Incubate the compound/DMSO with the enzyme for 30 min at room temperature. • 6. Dispense 5 uL/well of 2× Substrate Solution to columns 1-24. • 7. Spin assay plates for ˜1 min at 500 rpm. • 8. Stack the assay plates, covering the top plate. • 9. Incubate the assay plates at room temperature for 1 hour. Quench/Bead Addition • 1. Dispense 5 uL/well of the 3× Quench/Bead Mixture to columns 1-24. • 2. Seal the top of each assay plate with adhesive TopSeal. • 3. Spin assay plates for ˜1 min at 500 rpm. • 4. Equilibrate the plates for >20 min. Read plates • 1. Read the assay plates on the Viewlux Plate Reader utilizing the 613 nm emission filter with a 300 s read time.
Reagent addition can be done manually or with automated liquid handler. • The final DMSO concentration in this assay is 1%. • The positive control is in column 6; negative control is in column 18. • Final starting concentration of compounds is 100 µM. Results
Percent inhibition was calculated relative to the DMSO control for each compound concentration and the resulting values were fit using standard IC50 fitting parameters within the ABASE data fitting software package.

T1 sequence (Q15910 whole entry): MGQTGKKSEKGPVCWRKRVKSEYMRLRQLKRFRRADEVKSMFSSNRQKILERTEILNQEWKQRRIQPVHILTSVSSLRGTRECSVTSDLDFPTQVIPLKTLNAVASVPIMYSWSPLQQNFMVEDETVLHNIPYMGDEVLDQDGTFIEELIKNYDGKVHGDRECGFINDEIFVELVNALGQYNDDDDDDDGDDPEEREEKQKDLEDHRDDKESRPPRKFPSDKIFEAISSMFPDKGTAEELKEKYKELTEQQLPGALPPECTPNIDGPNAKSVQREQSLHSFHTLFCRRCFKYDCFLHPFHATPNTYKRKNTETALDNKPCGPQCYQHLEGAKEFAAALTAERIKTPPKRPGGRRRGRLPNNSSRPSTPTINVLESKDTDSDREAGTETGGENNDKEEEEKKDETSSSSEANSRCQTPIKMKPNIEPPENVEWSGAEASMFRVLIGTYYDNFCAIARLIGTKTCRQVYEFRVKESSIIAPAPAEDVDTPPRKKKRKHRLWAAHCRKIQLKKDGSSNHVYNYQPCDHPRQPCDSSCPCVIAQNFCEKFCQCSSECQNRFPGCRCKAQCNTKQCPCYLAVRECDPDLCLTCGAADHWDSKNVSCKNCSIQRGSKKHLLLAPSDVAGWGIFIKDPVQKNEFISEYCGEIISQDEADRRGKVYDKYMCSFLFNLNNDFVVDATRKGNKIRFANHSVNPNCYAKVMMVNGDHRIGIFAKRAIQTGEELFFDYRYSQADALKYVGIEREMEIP
T1 sequence (O75530 whole entry partner): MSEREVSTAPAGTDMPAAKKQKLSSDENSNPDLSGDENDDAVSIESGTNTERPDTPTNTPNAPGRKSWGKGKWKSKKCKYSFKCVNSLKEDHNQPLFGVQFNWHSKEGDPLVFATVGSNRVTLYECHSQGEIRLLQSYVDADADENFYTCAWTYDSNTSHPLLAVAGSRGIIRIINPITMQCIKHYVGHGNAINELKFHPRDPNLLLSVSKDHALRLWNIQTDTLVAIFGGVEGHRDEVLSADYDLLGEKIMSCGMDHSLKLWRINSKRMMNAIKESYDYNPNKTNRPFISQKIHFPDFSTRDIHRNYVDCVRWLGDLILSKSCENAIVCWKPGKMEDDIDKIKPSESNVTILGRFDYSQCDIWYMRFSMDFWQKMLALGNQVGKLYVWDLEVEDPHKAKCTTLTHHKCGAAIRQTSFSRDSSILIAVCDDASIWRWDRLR
T1 sequence (Q15022 whole entry partner): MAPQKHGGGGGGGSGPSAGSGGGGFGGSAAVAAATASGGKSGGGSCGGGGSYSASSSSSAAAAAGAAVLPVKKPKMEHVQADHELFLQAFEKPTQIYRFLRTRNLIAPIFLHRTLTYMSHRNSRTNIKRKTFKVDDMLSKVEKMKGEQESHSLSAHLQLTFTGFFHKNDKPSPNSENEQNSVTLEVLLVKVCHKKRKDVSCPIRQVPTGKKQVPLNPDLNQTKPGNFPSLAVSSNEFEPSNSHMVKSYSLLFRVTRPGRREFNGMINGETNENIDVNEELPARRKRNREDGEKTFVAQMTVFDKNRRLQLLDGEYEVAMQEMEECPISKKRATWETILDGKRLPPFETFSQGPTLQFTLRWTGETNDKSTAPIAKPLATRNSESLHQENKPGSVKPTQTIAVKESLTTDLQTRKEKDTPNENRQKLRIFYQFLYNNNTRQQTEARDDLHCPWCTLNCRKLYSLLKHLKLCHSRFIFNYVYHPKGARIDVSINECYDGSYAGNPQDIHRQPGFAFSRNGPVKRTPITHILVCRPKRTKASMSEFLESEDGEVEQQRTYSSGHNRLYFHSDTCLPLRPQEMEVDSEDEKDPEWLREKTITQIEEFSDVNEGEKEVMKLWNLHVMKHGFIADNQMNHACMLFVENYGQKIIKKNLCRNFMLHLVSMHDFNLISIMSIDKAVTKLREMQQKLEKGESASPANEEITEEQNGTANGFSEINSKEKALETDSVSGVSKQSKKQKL
T1 sequence (Q09028 whole entry partner): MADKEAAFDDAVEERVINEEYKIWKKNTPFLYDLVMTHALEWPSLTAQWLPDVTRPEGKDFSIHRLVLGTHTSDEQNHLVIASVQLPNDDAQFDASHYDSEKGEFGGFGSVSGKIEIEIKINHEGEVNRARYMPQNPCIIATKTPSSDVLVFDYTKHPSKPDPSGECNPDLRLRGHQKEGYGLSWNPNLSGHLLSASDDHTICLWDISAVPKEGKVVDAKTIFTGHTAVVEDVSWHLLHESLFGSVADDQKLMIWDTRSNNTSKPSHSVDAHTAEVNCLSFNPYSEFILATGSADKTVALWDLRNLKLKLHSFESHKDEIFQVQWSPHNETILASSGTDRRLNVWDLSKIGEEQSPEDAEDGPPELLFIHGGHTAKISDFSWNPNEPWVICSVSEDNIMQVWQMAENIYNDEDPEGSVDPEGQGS
T1 sequence (Q6ZN18 whole entry partner): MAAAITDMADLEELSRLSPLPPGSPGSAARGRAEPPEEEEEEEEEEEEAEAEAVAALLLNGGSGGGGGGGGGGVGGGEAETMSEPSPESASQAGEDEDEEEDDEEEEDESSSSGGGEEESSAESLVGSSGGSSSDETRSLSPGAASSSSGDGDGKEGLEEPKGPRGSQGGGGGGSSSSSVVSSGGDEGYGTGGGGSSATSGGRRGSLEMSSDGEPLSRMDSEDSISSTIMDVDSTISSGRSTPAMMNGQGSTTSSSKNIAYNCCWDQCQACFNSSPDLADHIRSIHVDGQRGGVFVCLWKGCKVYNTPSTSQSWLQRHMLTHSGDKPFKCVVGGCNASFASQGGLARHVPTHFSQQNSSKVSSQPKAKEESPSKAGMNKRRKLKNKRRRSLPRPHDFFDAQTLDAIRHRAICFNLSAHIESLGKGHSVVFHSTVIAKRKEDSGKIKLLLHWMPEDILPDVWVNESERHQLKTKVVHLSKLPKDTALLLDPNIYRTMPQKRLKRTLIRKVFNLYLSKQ

SMILES	IC50 [1] [nM]	IC50 [2] [nM]
CCN(c1scc(C(=O)NCc2c(C)cc(C)[nH]c2=O)c1C)[C@H]1CC[C@@H](N(C)C)CC1 [Example 7, N-((4,6-dimethyl-2-oxo-1,2-dihydropyridin-3-yl)methyl)-5-(((cis)-4-(dimethylamino)cyclohexyl)(ethyl)amino)-4-methylthiophene-3-carboxamide]	20	≤ 10
CCN(c1scc(C(=O)NCc2c(C)cc(C)[nH]c2=O)c1C)[C@H]1CC[C@H](N(C)C)CC1 [Example 8, N-((4,6-dimethyl-2-oxo-1,2-dihydropyridin-3-yl)methyl)-5-(((trans)-4-(dimethylamino)cyclohexyl)(ethyl)amino)-4-methylthiophene-3-carboxamide]	13	≤ 10
Cc1cc(C)c(CNC(=O)c2cnn(-c3ccccc3)c2C)c(=O)[nH]1 [Example 9, N-((4,6-dimethyl-2-oxo-1,2-dihydropyridin-3-yl)methyl)-5-methyl-1-phenyl-1H-pyrazole-4-carboxamide]	63100	20000
Cc1cc(C)c(CNC(=O)c2cnn(CC3CCOCC3)c2C)c(=O)[nH]1 [Example 10, N-((4,6-dimethyl-2-oxo-1,2-dihydropyridin-3-yl)methyl)-5-methyl-1-((tetrahydro-2H-pyran-4-yl)methyl)-1H-pyrazole-4-carboxamide]	≥ 100000	15800
CCN(c1scc(C(=O)NCc2c(C)cc(C)[nH]c2=O)c1C)C1CCN(C(=O)OC(C)(C)C)CC1 [Example 11, tert-Butyl 4-((4-(((4,6-dimethyl-2-oxo-1,2-dihydropyridin-3-yl)methyl)carbamoyl)-3-methylthiophen-2-yl)(ethyl)amino)piperidine-1-carboxylate]	20	16
CCN(c1scc(C(=O)NCc2c(C)cc(C)[nH]c2=O)c1C)C1CCNCC1 [Example 12, N-((4,6-dimethyl-2-oxo-1,2-dihydropyridin-3-yl)methyl)-5-(ethyl(piperidin-4-yl)amino)-4-methylthiophene-3-carboxamide hydrochloride]	20	≤ 10
Cc1cc(C)c(CNC(=O)c2csc(C(C)N3CCC(N(C)C)CC3)c2)c(=O)[nH]1 (stereo not drawn) [Example 13, N-((4,6-dimethyl-2-oxo-1,2-dihydropyridin-3-yl)methyl)-5-(1-(4-(dimethylamino)piperidin-1-yl)ethyl)thiophene-3-carboxamide]	2000	316
CCN(c1c(C)c(C(=O)NCc2c(C)cc(C)[nH]c2=O)nn1C)C1CCOCC1 [Example 14, N-[(4,6-dimethyl-2-oxo-1,2-dihydro-3-pyridinyl)methyl]-5-[ethyl(tetrahydro-2H-pyran-4-yl)amino]-1,4-dimethyl-1H-pyrazole-3-carboxamide]	2000	630
CCN(c1scc(C(=O)NCc2c(C(F)(F)F)cc(C)[nH]c2=O)c1C)C1CCOCC1 [Example 15, 5-(Ethyl(tetrahydro-2H-pyran-4-yl)amino)-4-methyl-N-((6-methyl-2-oxo-4-(trifluoromethyl)-1,2-dihydropyridin-3-yl)methyl)thiophene-3-carboxamide]	630	79
CCCc1cc(C)[nH]c(=O)c1CNC(=O)c1csc(N(CC)[C@H]2CC[C@H](N(C)C)CC2)c1C [Example 16, 5-(((trans)-4-(Dimethylamino)cyclohexyl)(ethyl)amino)-4-methyl-N-((6-methyl-2-oxo-4-propyl-1,2-dihydropyridin-3-yl)methyl)thiophene-3-carboxamide]	25	≤ 10
CCN(c1scc(C(=O)NCc2c(C)cc(C(F)(F)F)[nH]c2=O)c1C)[C@H]1CC[C@H](N(C)C)CC1 [Example 17, 5-(((trans)-4-(Dimethylamino)cyclohexyl)(ethyl)amino)-4-methyl-N-((4-methyl-2-oxo-6-(trifluoromethyl)-1,2-dihydropyridin-3-yl)methyl)thiophene-3-carboxamide]	630	316
CCN(c1scc(C(=O)NCc2c(OC)cc(C)[nH]c2=O)c1C)[C@H]1CC[C@H](N(C)C)CC1 [Example 18, 5-(((trans)-4-(Dimethylamino)cyclohexyl)(ethyl)amino)-N-((4-methoxy-6-methyl-2-oxo-1,2-dihydropyridin-3-yl)methyl)-4-methylthiophene-3-carboxamide]	13	≤ 10
CCN(c1sc(Br)c(C(=O)NCc2c(C)cc(C)[nH]c2=O)c1C)C1CCOCC1 [Example 19, 2-Bromo-N-((4,6-dimethyl-2-oxo-1,2-dihydropyridin-3-yl)methyl)-5-(ethyl(tetrahydro-2H-pyran-4-yl)amino)-4-methylthiophene-3-carboxamide]	20	≤ 10
Cc1cc(C)c(CNC(=O)c2csc(C(O)C3CCN(C(=O)OC(C)(C)C)CC3)c2C)c(=O)[nH]1 (stereo not drawn) [Example 20, tert-Butyl 4-((4-(((4,6-dimethyl-2-oxo-1,2-dihydropyridin-3-yl)methyl)carbamoyl)-3-methylthiophen-2-yl)(hydroxy)methyl)piperidine-1-carboxylate]	1590	158
Cc1cc(C)c(CNC(=O)c2csc(C(O)C3CCNCC3)c2C)c(=O)[nH]1 (stereo not drawn) [Example 21, N-((4,6-dimethyl-2-oxo-1,2-dihydropyridin-3-yl)methyl)-5-(hydroxy(piperidin-4-yl)methyl)-4-methylthiophene-3-carboxamide]	316	100
Cc1cc(C)c(CNC(=O)c2csc(C3CCCN3C3CCOCC3)c2C)c(=O)[nH]1 (stereo not drawn) [Example 22, N-((4,6-Dimethyl-2-oxo-1,2-dihydropyridin-3-yl)methyl)-4-methyl-5-(1-(tetrahydro-2H-pyran-4-yl)pyrrolidin-2-yl)thiophene-3-carboxamide]	6310	398
Cc1cc(C)c(CNC(=O)c2csc(-c3cnn(C4CCNCC4)c3)c2C)c(=O)[nH]1 [Example 23, N-((4,6-dimethyl-2-oxo-1,2-dihydropyridin-3-yl)methyl)-4-methyl-5-(1-(piperidin-4-yl)-1H-pyrazol-4-yl)thiophene-3-carboxamide]	3980	501
Cc1cc(C)c(CNC(=O)c2csc(C3CCN(C(=O)OC(C)(C)C)C3)c2C)c(=O)[nH]1 (stereo not drawn) [Example 24, tert-Butyl 3-(4-(((4,6-dimethyl-2-oxo-1,2-dihydropyridin-3-yl)methyl)carbamoyl)-3-methylthiophen-2-yl)pyrrolidine-1-carboxylate]	3980	251
